The molecules below were run against T1, ALDH2 (Homo sapiens, UniProt P05091) (assay: ALDH2 activity with 20 μM of the compound (Table 3)). Details: 20 μM compound.
T1 construct: His-tag (N); made in house; host or cells: E. coli BL21
T1 sequence (P05091 18-517): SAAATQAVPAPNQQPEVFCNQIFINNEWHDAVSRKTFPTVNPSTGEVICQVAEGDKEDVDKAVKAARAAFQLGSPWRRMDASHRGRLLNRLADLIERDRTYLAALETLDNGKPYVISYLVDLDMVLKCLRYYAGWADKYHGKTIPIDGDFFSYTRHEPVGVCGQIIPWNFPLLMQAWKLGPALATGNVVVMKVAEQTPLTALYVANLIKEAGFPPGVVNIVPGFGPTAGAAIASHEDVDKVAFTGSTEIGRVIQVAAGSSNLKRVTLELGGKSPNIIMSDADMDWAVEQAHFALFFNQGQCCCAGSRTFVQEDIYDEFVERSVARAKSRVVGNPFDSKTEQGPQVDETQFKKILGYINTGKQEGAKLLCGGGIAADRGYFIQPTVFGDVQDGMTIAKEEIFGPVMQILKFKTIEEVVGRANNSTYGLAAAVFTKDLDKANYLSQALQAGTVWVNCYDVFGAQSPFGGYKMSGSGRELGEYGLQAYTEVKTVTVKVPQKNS
Format: biochemical
Experimental: (§1) ALDH2 catalyzes the oxidative reaction of substrate acetaldehyde to acetic acid using NAD^+ as a cofactor. Enzymatic activity, or catalytic rate, of aldehyde dehydrogenase (ALDH2) are measured spectrophotometrically at UV wavelength λ340 nm by the accumulation of reduced product NADH derived from NAD^+. Absorbance at λ340 nm is quantitatively proportional to the amount of NADH being produced over time (6.22 O.D. unit=1 mmol of NADH, measured in a 1-cm width standard cuvette). This method is well-established in the literature [e.g. Rex et al., Alcohol Clin. Exp. Res. 9, 147 (1985)].
as §1, with “can be” for “are”
ALDH2 catalyzes the oxidative reaction of substrate acetaldehyde to acetic acid using NAD^+ as a cofactor. Enzymatic activity, or catalytic rate, of aldehyde dehydrogenase (ALDH2) can be measured spectrophotometrically at UV wavelength λ340 nm by the accumulation of reduced product NADH derived from NAD^+. Because compounds of formula (I) are considered to be agonists or “activators” of ALDH2 the enzymatic activity measured will exceed 100% of the baseline enzymatic activity of the enzyme in its normal activation state. As the concentration of the compounds of formula (I) decreases from 20 micromolar to 0.16 micromolar in the presence of ALDH, a decrease in the activation of enzymatic activity is observed for the wild-type ALDH2*1/*1 and the heterozygous form ALDH2*1/*2.

Question: `COc1ccc(CNC(=O)c2cc(-c3ncccc3CO)ccc2OC2CCCCCCC2)cc1F` [AC165] was tested. Which activity at 20 µM did it give?
Answer: 150 to 250%

Question: Which activity at 20 µM does the source give for `COc1cc(F)c(CNC(=O)c2cc(-c3ncccc3CO)ccc2OCC2CC2)cc1F` [AC146] here?
Answer: > 250%

Question: `[2H]C(O)c1cccnc1-c1ccc(OCC2CC2)c(C(=O)NCc2ccc(OC)c(F)c2)c1` (stereo not drawn) [AC152] was tested. Which activity at 20 µM did it give?
Answer: > 250%

Question: Which activity at 20 µM does the source give for `COc1ccc(CNC(=O)c2cc(-c3cnccc3CO)ccc2OC2CCCC2)cc1F` [AC107] here?
Answer: > 250%

Question: With `COc1ccc(CNC(=O)c2cc(-c3ccccc3C(N)=O)cnc2OCC2CC2)cc1F` [AC91] as the molecule, how does the activity at 20 µM read?
Answer: 100 to 150%

Question: `COc1c(F)cc(CNC(=O)c2cc(-c3ncccc3CO)ccc2OCC2CC2)cc1Cl` [AC147] was tested. Which activity at 20 µM did it give?
Answer: 150 to 250%

Question: Which activity at 20 µM does the source give for `COc1ccc(CNC(=O)c2cc(-c3ccccc3C(=O)O)cnc2OCC2CC2)cc1F` [AC75] here?
Answer: 100 to 150%

Question: Which activity at 20 µM does the source give for `COc1ccc(CNC(=O)c2cc(-c3cnn(C)c3CO)ccc2OCC2CC2)cc1F` [AC33] here?
Answer: > 250%

Question: Which activity at 20 µM does the source give for `COc1ccc(CNC(=O)c2cc(-c3cnccc3CO)ccc2O)cc1F` [AC93] here?
Answer: 100 to 150%

Question: With `COc1c(F)cc(CNC(=O)c2cc(-c3ncccc3CO)ccc2OCC2CC2)cc1F` [AC145] as the molecule, how does the activity at 20 µM read?
Answer: 150 to 250%

Question: For `COc1ccc(CNC(=O)c2cc(-c3ccccc3C(=O)O)ccc2OCC2CC2)cc1F` [AC85], which activity at 20 µM is on record?
Answer: 100 to 150%

Question: `COc1ccc(CNC(=O)c2cc(-c3ncccc3CO)ccc2OC2CCCCCC2)cc1F` [AC164] was tested. Which activity at 20 µM did it give?
Answer: > 250%

Question: For `COc1ccc(CNC(=O)c2cc(-c3ccccc3C(C)O)cnc2OCC2CC2)cc1F` (stereo not drawn) [AC89], which activity at 20 µM is on record?
Answer: 100 to 150%

Question: With `CCCOc1ccc(-c2ncccc2CO)cc1C(=O)NCc1ccc(OC)c(F)c1` [AC100] as the molecule, how does the activity at 20 µM read?
Answer: 150 to 250%

Question: With `COc1ccc(CNC(=O)c2cc(-c3ccccc3OC)cnc2OCC2CC2)cc1F` [AC74] as the molecule, how does the activity at 20 µM read?
Answer: 100 to 150%

Question: Which activity at 20 µM does the source give for `O=C(NCc1ccc(C(F)(F)F)cc1)c1cc(-c2ccccc2CO)cnc1OCC1CC1` [AC49] here?
Answer: 100 to 150%

Question: For `COc1ccc(CNC(=O)c2cc(-c3cnccc3CO)ccc2OCC(C)C)cc1F` [AC111], which activity at 20 µM is on record?
Answer: > 250%

Question: Which activity at 20 µM does the source give for `COc1ccc(CNC(=O)c2cc(-c3ncccc3CO)ccc2OC2CCCC2)cc1F` [AC108] here?
Answer: > 250%

Question: How did the activity at 20 µM turn out when `COc1ccc(CNC(=O)c2cc(-c3ncccc3CO)ccc2OCC2CCCCC2)cc1F` [AC163] was run?
Answer: 150 to 250%

Question: With `O=C(NCc1ccc(Cl)cc1)c1cc(-c2ccccc2CO)cnc1OCC1CC1` [AC52] as the molecule, how does the activity at 20 µM read?
Answer: 100 to 150%

Question: How did the activity at 20 µM turn out when `COc1ccc(CNC(=O)c2cc(-c3c[nH]nc3CO)ccc2OCC2CC2)cc1F` [AC30] was run?
Answer: > 250%

Question: `CCOc1ccc(-c2ncccc2CO)cc1C(=O)NCc1ccc(OC)c(F)c1` [AC98] was tested. Which activity at 20 µM did it give?
Answer: 150 to 250%

Question: How did the activity at 20 µM turn out when `[2H]C([2H])([2H])Oc1ccc(CNC(=O)c2cc(-c3ncccc3CO)ccc2OCC2CC2)cc1F` [AC153] was run?
Answer: > 250%

Question: How did the activity at 20 µM turn out when `O=C(NCc1cc2c(cc1Cl)OCO2)c1cc(-c2ncccc2CO)ccc1OCC1CC1` [AC46] was run?
Answer: 100 to 150%

Question: `COc1ccc(CNC(=O)c2cc(-c3ncccc3CO)ccc2OC2CCCCC2)cc1F` [AC110] was tested. Which activity at 20 µM did it give?
Answer: > 250%

Question: With `CC(C)(C)c1ccc(CNC(=O)c2cc(-c3ccccc3CO)cnc2OCC2CC2)cc1` [AC50] as the molecule, how does the activity at 20 µM read?
Answer: 100 to 150%

Question: `COc1ccc(CNC(=O)c2cc(-c3ncccc3CO)ccc2OCC2CCCC2)cc1F` [AC166] was tested. Which activity at 20 µM did it give?
Answer: > 250%

Question: Which activity at 20 µM does the source give for `COc1ccc(CNC(=O)c2cc(-c3ncccc3CO)ccc2OC2CC2)cc1F` [AC104] here?
Answer: 150 to 250%

Question: `COc1ccc(CNC(=O)c2cc(-c3ncccc3CO)ccc2OCC2CC2)c(C)c1F` [AC150] was tested. Which activity at 20 µM did it give?
Answer: 150 to 250%

Question: How did the activity at 20 µM turn out when `O=C(NCc1ccc(F)cc1)c1cc(-c2ccccc2CO)cnc1OCC1CC1` [AC53] was run?
Answer: 100 to 150%

Question: `Cc1ccc(CNC(=O)c2cc(-c3ccccc3CO)cnc2OCC2CC2)cc1` [AC48] was tested. Which activity at 20 µM did it give?
Answer: 100 to 150%

Question: `COc1ccc(CNC(=O)c2cc(-c3ncccc3CO)ccc2OCC2CC2)cc1OC` [AC44] was tested. Which activity at 20 µM did it give?
Answer: 150 to 250%

Question: `COc1ccc(CNC(=O)c2cc(-c3ccccc3CCO)cnc2OCC2CC2)cc1F` [AC92] was tested. Which activity at 20 µM did it give?
Answer: 100 to 150%

Question: Which activity at 20 µM does the source give for `CCNC(=O)c1ccccc1-c1cnc(OCC2CC2)c(C(=O)NCc2ccc(OC)c(F)c2)c1` [AC80] here?
Answer: 100 to 150%

Question: For `COc1ccc(CNC(=O)c2cc(-c3ccccc3CCC(C)=O)cnc2OCC2CC2)cc1F` [AC81], which activity at 20 µM is on record?
Answer: 100 to 150%

Question: Which activity at 20 µM does the source give for `COc1ccc(CNC(=O)c2cc(-c3cn(C)nc3CO)ccc2OCC2CC2)cc1F` [AC39] here?
Answer: 150 to 250%

Question: Which activity at 20 µM does the source give for `COc1ccc(CNC(=O)c2cc(-c3ncccc3CO)ccc2OC(C)C)cc1F` [AC102] here?
Answer: > 250%

Question: With `[2H]C(O)c1cccnc1-c1ccc(OCC2CC2)c(C(=O)NCc2ccc(OC([2H])([2H])[2H])c(F)c2)c1` (stereo not drawn) [AC157] as the molecule, how does the activity at 20 µM read?
Answer: > 250%

Question: `COc1ccc(CNC(=O)c2cc(-c3nc[nH]c3CO)ccc2OCC2CC2)cc1F` [AC38] was tested. Which activity at 20 µM did it give?
Answer: 150 to 250%

Question: Which activity at 20 µM does the source give for `O=C(NCc1ccc2c(c1)OCO2)c1cc(-c2ncccc2CO)ccc1OCC1CC1` [AC43] here?
Answer: 150 to 250%

Question: For `COc1ccc(CNC(=O)c2cc(-c3cnccc3CO)ccc2OC2CC2)cc1F` [AC103], which activity at 20 µM is on record?
Answer: 150 to 250%

Question: `COc1ccc(CNC(=O)c2cc(-c3cnccc3CO)ccc2OC)cc1F` [AC95] was tested. Which activity at 20 µM did it give?
Answer: 150 to 250%

Question: How did the activity at 20 µM turn out when `COc1ccc(CNC(=O)c2cc(-c3ncccc3CO)ccc2NCC2CC2)cc1F` [AC42] was run?
Answer: 150 to 250%

Question: `[2H]C([2H])([2H])Oc1ccc(CNC(=O)c2cc(-c3ncccc3CO)ccc2OC([2H])([2H])C2CC2)cc1F` [AC159] was tested. Which activity at 20 µM did it give?
Answer: > 250%

Question: For `O=C(NCc1ccc(C(F)(F)F)cc1F)c1cc(-c2ccccc2CO)cnc1OCC1CC1` [AC51], which activity at 20 µM is on record?
Answer: 100 to 150%

Question: `COc1ccc(CNC(=O)c2cc(-c3ccccc3/C=N/O)cnc2OCC2CC2)cc1F` [AC90] was tested. Which activity at 20 µM did it give?
Answer: 100 to 150%

Question: `COc1ccc(CNC(=O)c2cc(-c3ccccc3CN(C)C)cnc2OCC2CC2)cc1F` [AC76] was tested. Which activity at 20 µM did it give?
Answer: 100 to 150%

Question: Which activity at 20 µM does the source give for `CCCOc1ccc(-c2cnccc2CO)cc1C(=O)NCc1ccc(OC)c(F)c1` [AC99] here?
Answer: 150 to 250%

Question: With `COc1ccc(CNC(=O)c2cc(-c3ncccc3CO)ccc2OC2CCC2)cc1F` [AC106] as the molecule, how does the activity at 20 µM read?
Answer: 150 to 250%

Question: `CNCc1ccccc1-c1ccc(OCC2CC2)c(C(=O)NCc2ccc(OC)c(F)c2)c1` [AC83] was tested. Which activity at 20 µM did it give?
Answer: 150 to 250%

Question: With `CNCc1ccccc1-c1cnc(OCC2CC2)c(C(=O)NCc2ccc(OC)c(F)c2)c1` [AC70] as the molecule, how does the activity at 20 µM read?
Answer: 100 to 150%

Question: With `COc1ccc(CNC(=O)c2cc(-c3nocc3CO)cnc2OCC2CC2)cc1F` [AC41] as the molecule, how does the activity at 20 µM read?
Answer: 100 to 150%

Question: With `COc1ccc(CNC(=O)c2cc(-c3n[nH]cc3CO)cnc2OCC2CC2)cc1F` [AC40] as the molecule, how does the activity at 20 µM read?
Answer: 100 to 150%

Question: Which activity at 20 µM does the source give for `O=C(NCc1cc(Cl)c2c(c1)OCO2)c1cc(-c2ncccc2CO)ccc1OCC1CC1` [AC45] here?
Answer: 100 to 150%

Question: With `COc1ccc(CNC(=O)c2cc(-c3cnccc3CO)ccc2OC(C)C)cc1F` [AC101] as the molecule, how does the activity at 20 µM read?
Answer: > 250%

Question: `COc1ccc(CNC(=O)c2cc(-c3cnccc3CO)ccc2OC2CCC2)cc1F` [AC105] was tested. Which activity at 20 µM did it give?
Answer: 150 to 250%

Question: `COc1ccc(CNC(=O)c2cc(-c3ccccc3/C=C/C(C)=O)cnc2OCC2CC2)cc1F` [AC77] was tested. Which activity at 20 µM did it give?
Answer: 100 to 150%

Question: `CCOc1ccc(-c2cnccc2CO)cc1C(=O)NCc1ccc(OC)c(F)c1` [AC97] was tested. Which activity at 20 µM did it give?
Answer: 150 to 250%

Question: `COc1ccc(CNC(=O)c2cc(-c3ccccc3OC)ccc2OCC2CC2)cc1F` [AC78] was tested. Which activity at 20 µM did it give?
Answer: 100 to 150%

Question: For `COc1ccc(CNC(=O)c2cc(-c3ncccc3CO)ccc2O)cc1F` [AC94], which activity at 20 µM is on record?
Answer: 100 to 150%

Question: How did the activity at 20 µM turn out when `O=C(NCc1ccccc1)c1cc(-c2ccccc2CO)cnc1OCC1CC1` [AC55] was run?
Answer: 100 to 150%

Question: Which activity at 20 µM does the source give for `COc1ccc(CNC(=O)c2cc(-c3ccccc3O)ccc2OCC2CC2)cc1F` [AC82] here?
Answer: 100 to 150%

Question: Which activity at 20 µM does the source give for `O=C(NCc1ccc(Cl)c(Cl)c1)c1cc(-c2ccccc2CO)cnc1OCC1CC1` [AC54] here?
Answer: 150 to 250%
